Measurements as given in paper PMC7310436, “JP3, an antiangiogenic peptide, inhibits growth and metastasis of gastric cancer through TRIM25/SP1/MMP2 axis” (Journal of Experimental & Clinical Cancer Research : CR, 2020).
Where a SMILES comes first, the peptide text is derived from it. [ ]: non-standard residue; d: D form. pY = N[C@@H](Cc1ccc(OP(=O)(O)O)cc1)C(=O)O; pT = C[C@@H](OP(=O)(O)O)[C@H](N)C(=O)O

Key:
BGC823 cells [1] = experiment: Xenograft screening of candidate peptides by intra-tumor injection; format: in vivo, BALB/c nude mice; conditions: BGC823 subcutaneous xenograft; intra-tumor injection 10 mg/kg/d for 5 days/week x 2 weeks
Procedure: (§1) For establishing xenograft mouse models, 5 × 10^6/200 μL of BGC823 cells were subcutaneously injected into flank of BALB/c nude mice. When the tumor volume (V = 0.5 × length × width^2) reached about 100 mm^3, the mice were randomly divided into different groups and received the indicated treatments. General situations and activities of each mouse were daily recorded. Tumor sizes were recorded by caliper every 3 days for calculating tumor volumes. Body weight of the experimental mouse was also recorded every 3 days. The endpoint of the experimental therapy was determined until enough growth (up to 2000 mm^3) of the xenograft tumor or intolerable side effects.
(§2) In the present study, the strategy to screen JWA protein based functional tumor inhibitory peptides included four steps, (1) all the candidate fragments were selected from non-transmembrane regions and contain amino acid can be phosphorylated in its sequence; (2) the intra-tumor injection in xenograft GC tumor in mouse model was used for first round screening for all candidate fragments; (3) the identified functional peptides in (2) were modified with HWGF as MMP2 target and used for secondary screening by intraperitoneal injection in xenograft GC mouse model; (4) the functional peptides selected in (3) were further used to inhibit metastasis of GC (Fig. 1a).

BGC823 cells [2] = experiment: Xenograft screening of MMP2-targeted peptides by intraperitoneal injection; format: in vivo, BALB/c nude mice
Procedure: as §1, §2

CD31 [3] = experiment: Western blotting of xenograft tumor tissues; format: in vivo, BALB/c nude mice; conditions: nude mice bearing GC
Procedure: (§3) Western blotting analysis was carried out as previously described. The antibodies against MMP2, Tubulin, Ub, HA-tag, Flag-tag and Ki-67 were purchased from Cell Signal Technology (Danvers MA, USA); anti-CD31 and PCNA were provided by Epitomics (MA, USA); anti-GAPDH and Actin were purchased from Beyotime (Jiangsu, China); anti-TRIM25 and SP1 were provided by Proteintech (Wuhan, China); anti-His was purchased from MBL (Japan). All above antibodies were used at a dilution of 1:1000.

MMP2 [4] = experiment: Western blotting of xenograft tumor tissues; format: in vivo, BALB/c nude mice; conditions: nude mice bearing GC
Procedure: as §3

PCNA = experiment: Western blotting of xenograft tumor tissues; format: in vivo, BALB/c nude mice; conditions: nude mice bearing GC
Procedure: as §3

SP1 [5] = experiment: Western blotting of xenograft tumor tissues; format: in vivo, BALB/c nude mice; conditions: compared to the Ctrl-P-H treatment
Procedure: as §3

TRIM25 [6] = experiment: Western blotting of xenograft tumor tissues; format: in vivo, BALB/c nude mice; conditions: compared to the Ctrl-P-H treatment
Procedure: as §3

[7] = test system: CD31 (microvessel density (MVD)); experiment: IHC of xenograft tumor sections; format: in vivo, BALB/c nude mice
Procedure: (§4) Fig. 1 MMP2-targeted polypeptide JP3 inhibits growth and metastasis of GC in vivo. a The screening flowchart of JWA candidate peptides in nude mice. b The name and amino acid sequence of six fragments. c The ratios of mouse xenograft tumor weight/mice weight from screening model by intratumor injection. d The inhibition rates of tumor growth from screening model by intraperitoneal injection. e The expression levels of MMP2, CD31 and PCNA protein were analyzed using Western blotting in tumor tissues from nude mice bearing GC. f-g Sections of tumors were stained with anti-Ki-67 and anti-CD31 antibodies by IHC (scale bars = 50 μm). h-i The luciferase signals in the mice were detected and photographed using an IVIS in vivo image system. j-k The representative HE staining sections of lung (scale bars = 2 mm). l-m Sections of lung were stained with anti-CD31 antibodies by IHC (scale bars = 50 μm). The data are presented as the means ± SEM, ns: no significance, *P < 0.05, **P < 0.01

Ki-67 = experiment: IHC of xenograft tumor sections; format: in vivo, BALB/c nude mice
Procedure: as §4

BGC823 cells [8] = experiment: Metastatic GC mouse model (tail vein injection, bioluminescence imaging, HE staining of lung); format: in vivo, BALB/c nude mice
Procedure: For establishment of metastatic GC mouse model, five-week-old BALB/c nude mice were randomly divided into two groups, 3 mice each. BGC823 cells were suspended in PBS. The mice were injected intravenously with 2 × 10^6 cells in 0.15 mL of PBS through tail vein. On next day, the mice were treated by intra-peritoneal (ip) injection of Ctrl-H-P and JP3 and followed by luciferase substrate (GM-040611, Genomeditech, China); and photographed using the IVIS Spectrum in vivo imaging system (PerkinElmer, USA) on day 50th to observe the cancer cell metastasis.

CD31 [9] = experiment: IHC of lung sections, metastatic GC mouse model; format: in vivo, BALB/c nude mice
Procedure: as §4
For establishment of metastatic GC mouse model, five-week-old BALB/c nude mice were randomly divided into two groups, 3 mice each. BGC823 cells were suspended in PBS. The mice were injected intravenously with 2 × 10^6 cells in 0.15 mL of PBS through tail vein. […]

BGC823 cells [10] = experiment: Colony formation assay; format: cell-based, human; conditions: different concentrations of JP3
HUVECs [11] = experiment: HUVECs tube formation assay with conditional medium of peptide-treated GC cells; format: cell-based, human; conditions: 4 h on Matrigel
Procedure: After 6 hours of peptide treatment of GC cells, the medium was replaced and cultured in a 60 mm petri dish containing 1% serum for 24 h. On the next day, 2 mL of conditional medium was collected. For tube formation assay, a 96-well plate was coated with 50 μL of Matrigel™ (BD Biosciences) and kept at 37 °C for 2 h. Then, 1.2 × 10^4 HUVECs suspended in 100 μL of conditional medium were applied to each well of the precoated 96-well plate. After incubation at 37 °C for 4 h, tubular structures formed in the Matrigel were captured in five randomly selected fields per sample under a microscope.

HUVECs [12] = experiment: HUVECs tube formation assay, direct treatment of HUVECs; format: cell-based, human; conditions: HUVECs treated at similar dose for 24 h
SP1 [13] = experiment: Western blotting in GC cells; format: cell-based; conditions: SGC7901 and BGC823 (Non(p)-JP3: BGC823, 24 h)
Procedure: as §3

JWA = experiment: Western blotting in GC cells; format: cell-based, human; conditions: SGC7901 and BGC823
Procedure: as §3

MMP2 [14] = experiment: Western blotting in GC cells; format: cell-based, human; conditions: SGC7901 and BGC823 (Non(p)-JP3: BGC823, 24 h)
Procedure: as §3

TRIM25 [15] = experiment: Western blotting in BGC823 cells; format: cell-based, human; conditions: 0, 1, 10, 50 μM for 24 h
Procedure: as §3

SP1 [16] = experiment: Protein stability, CHX chase and Western blotting; format: cell-based, human; conditions: BGC823 cells; 50 μM for 24 h, then CHX
Procedure: as §3

TRIM25 [17] = experiment: Protein stability, CHX chase and Western blotting; format: cell-based, human; conditions: BGC823 cells; 50 μM for 12 h, then CHX
Procedure: as §3

SP1 [18] = experiment: Ubiquitination assay; format: cell-based, human
Procedure: (§5) GC cells were treated with or without JP3, followed by incubation with MG132 (10 μM) for another 6 h. Cells were harvested, prepared for protein samples and divided for Western blotting and co-IP assay, respectively. For co-IP assay, the protein (500 μg) was cultured with anti-SP1 or anti-TRIM25 antibody (dilution: 1:250) at 4 °C for 1 h, and Protein A/G Plus-Agarose overnight. After three cycles of washing in pre-cold IP buffer and centrifugation at 4 °C, 1000×g for 5 min, the immunoprecipitate was collected by centrifugation, eluted and examined by Western blotting.

TRIM25 [19] = experiment: Ubiquitination assay; format: cell-based, human; conditions: BGC823 cells; His-Ub 48 h, 50 μM 24 h, MG132 10 μM 6 h; IP anti-TRIM25
Procedure: as §5

SP1 mRNA = experiment: qRT-PCR; format: cell-based, human; conditions: BGC823 and SGC7901 cells
Procedure: (§6) According to the manufacturer’s protocol, total RNAs were isolated using TRIzol (Invitrogen, CA, USA) and reversely transcribed into cDNAs using reverse transcription kit and the SYBR Green Master Mix kit (Takara, Otsu, Japan). The complementary DNA (cDNA) was amplified with the following primers: 5′-[…]-3′ (forward) and 5′-[…]-3′ (reverse) for TRIM25; 5′-[…]-3′ (forward) and 5′-[…]-3′ (reverse) for GAPDH; 5′-[…]’-3′ (forward) and 5′-[…]-3′ (reverse) for SP1. Quantitative RT-PCR was carried out an ABI Prism 7900 Sequence detection system (Applied Biosystems, Canada). Relative levels were normalized to that of GAPDH.

TRIM25 mRNA = experiment: qRT-PCR; format: cell-based, human
Procedure: as §6

[20] = Toxicity and body weight in treated mice; format: in vivo, BALB/c nude mice; conditions: xenograft and metastatic mice models

Molecule: CSCC[C@H](NC(=O)[C@H](CCCNC(=N)N)NC(C)=O)C(=O)N[C@@H](CCCCN)C(=O)N[C@@H](CCCCN)C(=O)N[C@@H](CCCNC(=N)N)C(=O)N[C@@H](Cc1ccc(O)cc1)C(=O)N1CCC[C@H]1C(=O)N[C@H](C(=O)N[C@H](C(=O)N[C@@H](Cc1ccccc1)C(=O)N[C@H](C(=O)N[C@@H](CCSC)C(=O)N[C@H](C(=O)N[C@H](C(N)=O)C(C)C)C(C)C)C(C)C)[C@@H](C)OP(=O)(O)O)[C@@H](C)O [PJP3–3] (Ac-RMKKRYPT[pT]FVMVV-NH2)
- tumor inhibitory effect (ratio of mouse xenograft tumor weight/mice weight) (BGC823 cells [1]): better effects than the others

Molecule: CSCC[C@H](NC(=O)[C@H](CCCNC(=N)N)NC(C)=O)C(=O)N[C@@H](CCCCN)C(=O)N[C@@H](CCCCN)C(=O)N[C@@H](CCCNC(=N)N)C(=O)N[C@@H](Cc1ccc(OP(=O)(O)O)cc1)C(=O)N1CCC[C@H]1C(=O)N[C@H](C(=O)N[C@H](C(=O)N[C@@H](Cc1ccccc1)C(=O)N[C@H](C(=O)N[C@@H](CCSC)C(=O)N[C@H](C(=O)N[C@H](C(N)=O)C(C)C)C(C)C)C(C)C)[C@@H](C)O)[C@@H](C)O [PJP3–1] (Ac-RMKKR[pY]PTTFVMVV-NH2)
- tumor inhibitory effect (ratio of mouse xenograft tumor weight/mice weight) (BGC823 cells [1]): better effects than the others

Molecule: HWGF [histidine-tryptophan-glycine-phenylalanine, reference compound]
- biological function to inhibit gastric cancer (BGC823 cells [2]; HWGF targeting MMP2 alone): no biological function to inhibit gastric cancer

Molecule: CSCC[C@H](NC(=O)[C@H](CCCNC(=N)N)NC(C)=O)C(=O)N[C@@H](CCCCN)C(=O)N[C@@H](CCCCN)C(=O)N[C@@H](CCCNC(=N)N)C(=O)N[C@@H](Cc1ccc(O)cc1)C(=O)N1CCC[C@H]1C(=O)N[C@H](C(=O)N[C@H](C(=O)N[C@@H](Cc1ccccc1)C(=O)N[C@H](C(=O)N[C@@H](CCSC)C(=O)N[C@H](C(=O)N[C@H](C(=O)NCC(=O)NCC(=O)NCC(=O)NCC(=O)N[C@@H](Cc1c[nH]cn1)C(=O)N[C@@H](Cc1c[nH]c2ccccc12)C(=O)NCC(=O)N[C@@H](Cc1ccccc1)C(N)=O)C(C)C)C(C)C)C(C)C)[C@@H](C)OP(=O)(O)O)[C@@H](C)O [JP3] (Ac-RMKKRYPT[pT]FVMVVGGGGHWGF-NH2)
- tumor inhibitory rate (inhibition of xenograft tumor growth) (BGC823 cells [2]; BGC823 subcutaneous xenograft, intraperitoneal injection 50 mg/kg/d for 12 days): best tumor inhibitory rate among candidates
- expression of CD31 in GC tumor tissues (CD31 [3]): down-regulated
- expression of MMP2 in GC tumor tissues (MMP2 [4]): down-regulated
- expression of PCNA in GC tumor tissues (PCNA): down-regulated
- expression of SP1 in GC tumor tissues (SP1 [5]): down-regulated
- expression of TRIM25 in GC tumor tissues (TRIM25 [6]): up-regulated
- expression of CD31 (microvessel density (MVD)) in GC tumor tissues [7]: suppressed
- expression of Ki-67 in GC tumor tissues (Ki-67): suppressed
- relative area of metastatic tumor in lung (BGC823 cells [8]; HE staining): significantly decreased
- fluorescence intensity of GC cell metastatic foci (BGC823 cells [8]; bioluminescence imaging on day 50, ip injection, compared with Ctrl-P-H group, 3 mice each): obviously reduced
- expression of CD31 in GC metastatic tissues (CD31 [9]): significantly suppressed
- effect on GC cell proliferation in vitro (colony numbers) (BGC823 cells [10]): no obvious effects
- tubular formation of HUVECs (HUVECs [11]; supernatent of peptide-treated BGC823 cells): dose-dependently inhibited
- tubular formation of HUVECs (HUVECs [11]; supernatent of peptide-treated SGC7901 cells): dose-dependently inhibited
- tubular formation of HUVECs, direct treatment (HUVECs [12]): no obvious effects
- expression of SP1 in GC cells (SP1 [13]): down-regulated
- expression of JWA in GC cells (JWA): no obvious effect
- expression of MMP2 in GC cells (MMP2 [14]): down-regulated
- TRIM25 protein level (TRIM25 [15]): dose-dependent increase
- degradation (stability) of SP1 (SP1 [16]): accelerated degradation
- degradation (stability) of TRIM25 (TRIM25 [17]): slowed down the degradation
- relative band intensity printed with the blot (IP: SP1, IB: ubiquitin) (SP1 [18]; BGC823, His-ub, JP3 50 μM, with MG132 10 μM 6 h, control = 1.00, MG132 alone 1.50): 2.17
- ubiquitinated SP1 (SP1 [18]; BGC823 and SGC7901 cells, His-ub 48 h, 50 μM for 24 h, IP anti-SP1): increased
- ubiquitinated TRIM25 (TRIM25 [19]): decreased
- mRNA level of SP1 (SP1 mRNA): not affected
- mRNA level of TRIM25 (TRIM25 mRNA): not affected
- side effects [20]: undetectable side effects

Molecule: CC[C@H](C)[C@H](NC(C)=O)C(=O)NCC(=O)N[C@@H](CC(C)C)C(=O)N[C@@H](CCCCN)C(=O)N[C@@H](CCCNC(=N)N)C(=O)N[C@H](C(=O)N1CCC[C@H]1C(=O)N[C@@H](CCSC)C(=O)NCC(=O)N[C@H](C(=O)N[C@H](C(N)=O)C(C)C)[C@@H](C)CC)[C@@H](C)OP(=O)(O)O [PJP5] (Ac-IGLKR[pT]PMGIV-NH2)
- tumor inhibitory effect (ratio of mouse xenograft tumor weight/mice weight) (BGC823 cells [1]): better effects than the others
